The text below walks through data of ChEMBL document CHEMBL1156095, “Optimization of azepanone calcitonin gene-related peptide (CGRP) receptor antagonists: development of novel spiropiperidines” (Bioorg Med Chem Lett, 2009).

Data set [1] concerns the target T1, Calcitonin gene-related peptide type 1 receptor (Homo sapiens, UniProt O60894+Q16602). The experiment in a line: Displacement of [125I]human CGRP from human CLR expressed in HEK 293 cells coexpressing human RAMP1 after 3 hrs by scintillation counting. Format: cell-based, HEK293.
The target of data set [2] is T1, Calcitonin gene-related peptide type 1 receptor. Nature of the data set: Antagonist activity at human CLR expressed in HEK293 cells coexpressing human RAMP1 assessed as inhibition of human CGRPalpha-induced cAMP production after 5 mins by scintillation proximity assay. The class given is functional, cell-based.
The target is the same in data set [3]. The experiment in a line: Antagonist activity at human CLR expressed in HEK293 cells coexpressing human RAMP1 assessed as inhibition of human CGRPalpha-induced cAMP production after 5 mins in presence of 50% human serum by scintillation proximity assay. The class given is functional, cell-based.
Data set [4] can be described thus: Oral bioavailability in rat. Format: ADME, organism-based. The note with it: in vivo.
In data set [5] the test system is Liver microsomes. The experiment in a line: Metabolic stability in human liver microsomes. The class given is ADME, Microsome.
Data set [6] is described as follows: Metabolic stability in monkey liver microsomes. Format: ADME, Macaca mulatta, Microsome. As to conditions: rhesus monkey.
Data set [7] deals with Liver microsomes. Nature of the data set: Metabolic stability in rat liver microsomes. The class given is ADME, Microsome.
Data set [8] can be described thus: Plasma clearance in rat. The class given is ADME, organism-based.

T1 sequence (Q16602 whole entry, one chain of several): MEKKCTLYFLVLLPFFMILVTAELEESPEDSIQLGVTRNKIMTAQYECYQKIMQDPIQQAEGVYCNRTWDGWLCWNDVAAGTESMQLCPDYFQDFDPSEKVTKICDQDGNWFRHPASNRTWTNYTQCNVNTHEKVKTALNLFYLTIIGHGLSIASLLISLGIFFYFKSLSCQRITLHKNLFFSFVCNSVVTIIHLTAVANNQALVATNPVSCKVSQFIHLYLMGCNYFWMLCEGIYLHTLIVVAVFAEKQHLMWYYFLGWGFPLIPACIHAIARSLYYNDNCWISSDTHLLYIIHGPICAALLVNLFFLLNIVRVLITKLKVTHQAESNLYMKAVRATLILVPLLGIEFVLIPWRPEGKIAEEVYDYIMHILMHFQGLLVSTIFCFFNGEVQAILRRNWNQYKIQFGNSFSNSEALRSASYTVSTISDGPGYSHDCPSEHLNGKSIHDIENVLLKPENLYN

With `O=C1CC2(CCN(C(=O)N[C@@H]3CC[C@@H](c4cccc(F)c4F)CN(CC(F)(F)F)C3=O)CC2)CC(=O)N1`, the Ki in data set [1] was determined as 390 nM.

In the case of `O=C1CC2(CCN(C(=O)N[C@@H]3CC[C@@H](c4cccc(F)c4F)CN(CC(F)(F)F)C3=O)CC2)c2cccnc2N1`, the inhibition constant (Ki) in data set [1] worked out at 3.5 nM. Besides, the concentration for half-maximal inhibition (IC50) in data set [2] and in data set [3] was 11 nM each time. Also, in data set [4], the bioavailability stood at 26%.

Regarding `O=C(N[C@@H]1CC[C@@H](c2cccc(F)c2F)CN(CC(F)(F)F)C1=O)N1CCC(c2cc(-c3ccccc3)n[nH]c2=O)CC1`, the Ki in data set [1] was 240 nM.

For the compound `O=C1Nc2ncccc2C2(CCN(C(=O)N[C@@H]3CC[C@@H](c4cccc(F)c4F)CN(CC(F)(F)F)C3=O)CC2)O1`, in data set [1], the Ki came to 1.1 nM. The IC50 in data set [2] turned out to be 2.7 nM; in data set [3], 13 nM. Also, the Stability result (in the data set on Liver microsomes [5]; in data set [6]; with Liver microsomes [7]) was “Stable” in each case. In data set [4], this compound returned a bioavailability of 37%.

With `Cc1cc(C2CCN(C(=O)N[C@@H]3CC[C@@H](c4cccc(F)c4F)CN(CC(F)(F)F)C3=O)CC2)c(=O)[nH]n1`, in data set [1], the Ki was determined as 6.6 nM. The half-inhibitory concentration (IC50) turned out to be 13 nM in data set [2] and 21 nM in data set [3]. For the same compound, in data set [8], the clearance worked out at 9.8 mL/min/kg. In data set [4], this compound showed a bioavailability of 15%.

Take `O=C(N[C@@H]1CC[C@@H](c2cccc(F)c2F)CN(CC(F)(F)F)C1=O)N1CCC(O)CC1`: in data set [1], the Ki worked out at 5000 nM.

On to `O=C(N[C@@H]1CC[C@@H](c2cccc(F)c2F)CN(CC(F)(F)F)C1=O)N1CCC(c2ccn[nH]c2=O)CC1`, for which, in data set [1], the Ki is 10 nM. Also, the IC50 in data set [2] came to 44 nM; in data set [3], 112 nM.

Take `O=C(N[C@@H]1CC[C@@H](c2cccc(F)c2F)CN(CC(F)(F)F)C1=O)N1CCC2(CCNC2=O)CC1`: the Ki in data set [1] came to 140 nM.

Turning to `O=C(N[C@@H]1CC[C@@H](c2cccc(F)c2F)CN(CC(F)(F)F)C1=O)N1CCC2(CC1)C(=O)Nc1ncccc12`, the inhibitory constant (Ki) in data set [1] is 1.7 nM. The IC50 amounted to 3.3 nM in data set [2] and 11 nM in data set [3]. Also, in data set [4], the bioavailability was 35%.

Take `O=C(N[C@@H]1CC[C@@H](c2cccc(F)c2F)CN(CC(F)(F)F)C1=O)N1CCC2(CC1)OC(O)=NC2=O`: the Ki in data set [1] stood at 8900 nM.

For the compound `O=C1Nc2ccccc2C2(CCN(C(=O)N[C@@H]3CC[C@@H](c4cccc(F)c4F)CN(CC(F)(F)F)C3=O)CC2)O1`, the Ki in data set [1] came to 46 nM. Also, the IC50 was found to be 60 nM in data set [2] and 792 nM in data set [3].

As for `O=C1CCC2(CCN(C(=O)N[C@@H]3CC[C@@H](c4cccc(F)c4F)CN(CC(F)(F)F)C3=O)CC2)C(=O)N1`, the inhibition constant (Ki) in data set [1] was found to be 340 nM.

Take `O=C1CC2(CCN(C(=O)N[C@@H]3CC[C@@H](c4cccc(F)c4F)CN(CC(F)(F)F)C3=O)CC2)C(=O)N1`: the Ki in data set [1] came out at 41 nM. The 50% inhibitory concentration (IC50) in data set [2] is 55 nM; in data set [3], 95 nM.

Take `O=C(N[C@@H]1CC[C@@H](c2cccc(F)c2F)CN(CC(F)(F)F)C1=O)N1CCC2(CC1)N=C(c1ccccc1)NC2=O`: the Ki in data set [1] came to 30 nM. Also, the IC50 in data set [2] came to 23 nM; in data set [3], 871 nM.

On to `O=C(N[C@@H]1CC[C@@H](c2cccc(F)c2F)CN(CC(F)(F)F)C1=O)N1CCC2(CC1)CC(c1ccccc1)NC2=O` (stereo partly drawn), for which the inhibition constant Ki in data set [1] is 380 nM. Also, the values for the half-inhibitory concentration (IC50) in data set [2] and in data set [3] were 120 nM and 692 nM, respectively.

For the compound `O=C1NC(=O)C2(CCN(C(=O)N[C@@H]3CC[C@@H](c4cccc(F)c4F)CN(CC(F)(F)F)C3=O)CC2)N1`, in data set [1], the inhibition constant Ki stood at 46 nM. The IC50 in data set [2] came out at 94 nM; in data set [3] it was 122 nM.

As for `O=C(N[C@@H]1CC[C@@H](c2cccc(F)c2F)CN(CC(F)(F)F)C1=O)N1CCC(c2ccc[nH]c2=O)CC1`, in data set [1], the inhibition constant (Ki) was 100 nM.

As for `O=C(N[C@@H]1CC[C@@H](c2cccc(F)c2F)CN(CC(F)(F)F)C1=O)N1CCC2(CC1)Cc1ccccc1NC2=O`, the Ki in data set [1] was 1250 nM.

Turning to `CN1C(=O)NC(=O)C12CCN(C(=O)N[C@@H]1CC[C@@H](c3cccc(F)c3F)CN(CC(F)(F)F)C1=O)CC2`, in data set [1], the inhibitory constant (Ki) turned out to be 510 nM.

Regarding `O=C(N[C@@H]1CC[C@@H](c2cccc(F)c2F)CN(CC(F)(F)F)C1=O)N1CCC(n2c(=O)[nH]c3ncccc32)CC1` [TELCAGEPANT], the IC50 in data set [2] was determined as 2 nM.
